Reference: patent US20090162911A1 (priority 2007, published 2009)
Read-outs that look alike come from different tables or passages of the source.

Tests used:
[1] = system: acrB transposon mutant line DPD1852; format: cell-based, E. coli; settings: acrB mutation, 18 hr exposure, FIG. 7
Protocol: Growth of the acrB transposon mutant line, DPD1852 (in Example 2), and the parental strain EC100 were compared in the presence of different butanols. Cultures were grown in LB medium at 37° C. to mid-logarithmic phase and then 200 μl was put into microtiter wells of a Bioscreen device that monitors optical density as a function of time. Triplicate wells contained a culture challenged with a specified concentration of a compound. For 2- and isobutanol the concentrations tested were 0, 0.8, 1.2, 1.4, and 1.6% weight percent. For 1-butanol the concentrations were 0, 0.2, 0.3, 0.4, and 0.6% w/v. For 2-butanone (MEK, methylethylketone) the concentrations were 0, 2.5, 3, 3.5 and 4% w/v.

[2] = system: tolC transposon insertion mutant JW5503; test: Shake flask growth of tolC insertion mutant compared with parental strain; format: cell-based, E. coli
Protocol: (§1) Strains of E. coli K12 EC100 having insertions in either the acrA or acrB coding regions, JW0452 and JW0451 respectively, were obtained from the Keio knockout collection described in Example 4. Growth of these strains was compared in the presence of 2-butanol and isobutanol in relation to the parental strain EC100. Overnight cultures were inoculated with a fresh colony and grown in LB at 37° C. with shaking. The next day the culture was diluted 1:100 into 100 ml of fresh LB in a 1 liter flask and grown for approximately 2 hours. The culture was split into 20 ml aliquots in 125 ml plastic screw top flasks. One culture remained unaltered serving as the no add control, and various concentrations of either 2-butanol or isobutanol were added to the remaining flasks. Absorbance (OD600) was monitored over time. Fractional growth yields were determined after 3 hr of exposure and percent improvement was calculated by subtracting the […] and multiplying by 100.
In addition, a to/C transposon insertion mutant of the Keio collection, JW5503, was also assayed.

[3] = system: acrA insertion strain JW0452; format: cell-based, E. coli; settings: for improved growth over the parental strain: acrA modified strain, 3 hr exposure, LB 37° C.; for tolerance of mutant relative to parent strain: acrA mutant JW0452, FIG. 8
Protocol: as §1

[4] = system: acrB insertion strain JW0451; format: cell-based, E. coli; settings: for improved growth over the parental strain: acrB modified strain, 3 hr exposure, LB 37° C.; for tolerance of mutant relative to parent strain: acrB mutant JW0451, FIG. 8
Protocol: as §1

[5] = system: acrB transposition mutant strain DPD1852; settings: LB with 0.2%, 0.3%, 0.4% or 0.6% 1-butanol (w/v), FIG. 3
Protocol: Overnight triplicate cultures of each strain were grown and diluted (1:10) into either LB or LB freshly supplemented with 0.2%, 0.3%. 0.4% or 0.6% 1-butanol (w/v). The growth of each culture was followed for approximately 18 hours.
An additional kinetic growth study was performed as described above.

E. coli strain EC100 = settings: EC100 on solidified LB
Protocol: LB agar media supplemented with butanol was prepared fresh one day before innoculating at an appropriate volume and cooled for 2 hours in a 50° C. water bath. LB agar plates supplemented with butanol were prepared by dispensing 67 mls of melted agar, using a peristaltic pump and sterile Nalgene tubing, into sterile Omni trays with lids (Nunc mfg no. 242811). […] The plates were allowed to cool and set for approximately an hour before they were stored overnight in closed anaerobic chambers at room temperature in the chemical/biological hood. The next morning, the chambers harboring the plates were opened and allowed to air dry for approximately 1 hour before using.
Plates were incubated in a closed chamber at 37° C. for 1 day. The number of colonies arising and their sizes were scored. […] Butanol concentrations of 0.4% and 0.6% were chosen to screen for tolerance.
rpoZ::kan line JW3624 = settings: rpoZ mutant, 0.4 and 0.6% 1-butanol, 18 hr, FIG. 6
Protocol: (§2) Shake flask experiments were performed on the acrB rpoZ::kan constructed double mutant line DPD1899, as well as the acrB deletion line DPD1876, the rpoZ::kan line JW3624, and the wild type control BW25113 line. Cultures were grown in LB medium containing 0%, 0.4% or 0.6% 1-butanol in shake flasks. The experiments were performed by inoculating 100 ml of medium in a 250 ml plastic flask with 2 ml of an overnight culture grown from a single colony grown at 37° C. and incubating with shaking for approximately two doubling times (1 hour), to an OD600 between 0.2 and 0.3. Each culture was split into […] in plastic screw top 125 ml flasks and the cultures were maintained at 37° C. in a shaking water bath at 200 rpm. The OD600 was monitored at 0, 30, 90, 120 190, and 260 minutes.
(§3) In the cultures above, a final time point was taken at 18 hr and used to calculate growth yield as a function of 1-butanol challenge. For each line grown in 0, 0.4% or 0.6% 1-butanol, the final 18 hour time point was divided by the no 1-butanol 18 hr time point.

[6] = system: acrB rpoZ::kan double mutant line DPD1899; settings: 0.4 and 0.6% 1-butanol, 18 hr, FIG. 6
Protocol: as §2, §3

[7] = system: wild type control BW25113; settings: wild type cells, 0.4 and 0.6% 1-butanol, 18 hr, FIG. 6
Protocol: as §2, §3

[8] = system: acrB deletion line DPD1876; settings: acrB mutant, 0.4 and 0.6% 1-butanol, 18 hr, FIG. 6
Protocol: as §2, §3

CC(C)CO [isobutanol]
tolerance (growth improvement over parental EC100) [1]: improved the tolerance
growth response relative to parental strain [2]: indistinguishable from the parental strain
improved growth over the parental strain ([3]; 0.4% of the compound): about 18%
improved growth over the parental strain ([3]; 0.6% of the compound): about 3.5%
tolerance of mutant relative to parent strain [3]: more tolerant
improved growth over the parental strain ([4]; 0.4% of the compound): about 20%
improved growth over the parental strain ([4]; 0.6% of the compound): about 2.5%
tolerance of mutant relative to parent strain [4]: more tolerant

CCCCO [1-butanol]
tolerance (growth improvement over parental EC100) [1]: improved the tolerance
tolerance in terms of growth rate relative to wild type EC100 [5]: more tolerant to all of the concentrations of 1-butanol tested than the wild type strain
colony size (E. coli strain EC100; 0.6% 1-butanol, 37° C., 1 day): only pinpoint colonies
concentration with no colony formation after overnight incubation (E. coli strain EC100; 37° C.): ≥ 0.7 % (w/v)
concentration from which colonies were progressively smaller (E. coli strain EC100; closed chamber, 37° C., 1 day): ≥ 0.2%
titer (number of colonies arising) (E. coli strain EC100; range of 0 to 0.6% 1-butanol): No change in titer
growth yield (fractional growth) (rpoZ::kan line JW3624): higher growth yields than wild type
growth yield (fractional growth) [6]: even higher growth yield
sensitivity to growth inhibition (fractional growth) [7]: most sensitive to growth inhibition
growth yield (fractional growth) [8]: higher growth yields than wild type

CCC(C)O (stereo not drawn) [2-butanol]
tolerance (growth improvement over parental EC100) [1]: improved the tolerance
growth response relative to parental strain [2]: indistinguishable from the parental strain
improved growth over the parental strain ([3]; 0.6% of the compound): about 12%
improved growth over the parental strain ([3]; 0.8% of the compound): about 5%
tolerance of mutant relative to parent strain [3]: more tolerant
improved growth over the parental strain ([4]; 0.6% of the compound): about 24%
improved growth over the parental strain ([4]; 0.8% of the compound): about 12%
tolerance of mutant relative to parent strain [4]: more tolerant

CCC(C)=O [MEK, 2-butanone]
tolerance (growth improvement over parental EC100) [1]: improved the tolerance
